From patent publication US20070003509A1, “Skin treatment composition” (priority 2005, published 2007)
Marks after values point to notes of the source that are not given here.

Tests used:
[1] = tested on: fibrillin-rich microfibrils proximal to the dermal-epidermal junction (DEJ); test: Patch-test protocol, immunohistochemistry of fibrillin-rich microfibrils in photoaged skin in vivo; set-up: species or system human; conditions: for Fibrillin expression proximal to the DEJ, Mean (degree of immunostaining): scale 0-4
Excerpt: (§1) It was done by identification of Procollagen-I and Fibrillin upregulation and matrix metalloprotease-1 (MMP-1) down-regulation in Skin In Vivo. Experiments were done following topical Retinoic Acid (RA) treatment for comparative purposes and analysis of the effects of salicyloyl-phytosphingosine and phytosphingosine compared with retinoic acid with respect to the expression of dermal markers in vivo. See: Watson R E B, Craven N M, Kang S, Jones C J P, Kielty C M, Griffiths C E M. A short term screening protocol, using fibrillin-1 as a […] molecule for photoageing repair agents. J Invest Dermatol, 116: 672-678, 2001, for published methodology.
(§2) Five healthy, but clinically photoaged volunteers, were recruited (age range 54-71 years). Test substances were applied separately under standard 6 mm diameter Finn chambers to the extensor aspect of the forearm: these were vehicle base (15 μl/chamber), 0.2% PS-SLC (15 μl/chamber), 0.05% PS-SLC (15 μl/chamber), 0.2% phytosphingosine (15 μl/chamber) and 0.025% all-tans RA (Retin-A® cream, Janssen-Cilag Ltd., 15 μl/chamber). Formulations were applied to clean skin on days 1 and 4 of the assay. All-trans RA was applied to an untreated site on day 4. On day 8, Finn chambers were removed and 3 mm punch biopsies were obtained under 1% lignocaine anaesthesia from each of the test site. Biopsies were embedded in OCT compound (Tissue-Tek®, Miles, Ind., USA) and snap frozen in liquid nitrogen. Biopsy sites were sutured with 1×4/o ethilon and subjects instructed to return between 7-10 days for suture removal. Frozen sections were […] at a thickness of 10 μm (OTF cryostat, Bright Instruments Ltd.) and mounted onto gelatin-coated slides prior to histological analysis. A number of extracellular matrix (ECM) molecules known to be altered in photoaged skin were assayed by immunohistochemistry to detail the potential effects of the novel formulations. The primary marker of outcome was the distribution of fibrillin-rich microfibrils proximal to the dermal-epidermal junction (DEJ). Also assessed was the distribution of procollagen-1 within the dermis.
(§3) Matrix metalloprotease-1 (MMP-1) levels were also assessed. Whilst the fibrillin and procollagen-1 should increase for an antiaging active levels of MMP-1 should decrease for an antiaging active, i.e., increased synthesis of dermal structural proteins together with reduced levels of the proteases that degrade them. For each analysis, the marker was identified in each of three sections (i.e., 3 sections/treatment/volunteer). Sections were optimally fixed. Routinely, following hydration in tris-buffered saline (TBS; 100 mM Tris, 150 mM NaCl), sections were solublised by addition of 0.5% Triton-X100 (10 minutes). Following washing, endogenous peroxidase activity was abolished by incubation with an excess of hydrogen peroxide in methanol (30 minutes). Sections were blocked prior to application of primary antibody (overnight incubation @4° C.). Negative controls were concurrently incubated with either block alone or control serum. Following incubation, sections were stringently washed with TBS prior to application of an appropriate biotinylated secondary antibody. This was further conjugated to the enzyme horseradish peroxidase using a commercially available kit following the manufacturers instructions (ABC Elite System, Vector Laboratory, Peterborough UK). Antibody was localised using Vector SG® as chromogen (10 minute incubation)—washing in TBS quenched this reaction. Sections were counterstained using Nuclear Fast Red and finally dehydrated through serial alcohols, cleared and permanently mounted.
(§4) Sections were randomised, blinded and examined on a Nikon OPTIPHOT microscope (Tokyo, Japan). For assessment of ECM and cornified envelope components, the degree of immunostaining was assessed on a 5 point semi-quantitative scale where 0=no staining and 4=maximal staining. Four sections (including control) were examined per subject per site. […]

[2] = tested on: pro-collagen I in the papillary dermis; test: Patch-test protocol, immunohistochemistry of pro-collagen I in photoaged skin in vivo; set-up: species or system human; conditions: for Pro-collagen I expression in the papillary dermis, Mean (degree of immunostaining): scale 0-4, N=5
Excerpt: as §1, §2, §3, §4

[3] = tested on: Matrix metalloprotease-1 (MMP-1); test: Patch-test protocol, immunohistochemistry of MMP-1 in photoaged skin in vivo; set-up: species or system human; conditions: for MMP-1 expression, Mean (MMP-1 IHC): N=5
Excerpt: as §1, §2, §3, §4

cellulite (thigh) = test: Clinical trial of anticellulite activity by topical application; format: in vivo, human; conditions: 0.2% formulation of Example 2, two times a day for 2 months, six female subjects
Excerpt: Six female subjects were selected for a clinical trial of anticellulite activity of salicyloyl-phytoshingosine by topical application.
The scale ranged from 0 to 4, being 0=No cellulite; 1=Small bumps or depressions; 2=Striations and bumps; 3=Pronounced lumpiness of the skin and striations; 4=All of the above plus hard sub-surface nodules. All tested volunteers had cellulite with grades 1 and 2. The subjects were divided in 2 groups of 3 individuals
Group 1 was instructed to apply a formulation described in Example 2 containing 0.2% salicloyl-phytosphingosine on the right thigh and the vehicle formulation without salicyloyl-phytoshingosine in the left thigh Group 2 was instructed to apply the formulations vice versa. The subjects were taught to carry out the application two times a day, at morning and at night for a period of 2 months. Afterwards the cellulite condition was evaluated by comparison of the thigh diameter, the clinical degrading and the subjective improvement.

[4] = Patch-test protocol, erythema at the site of application; format: in vivo, human; conditions: occluded patch test on forearm, photoaged volunteers
Description: as §2, with “The primary marker of outcome was the distribution of fibrillin-rich microfibrils proximal to the dermal-epidermal junction (DEJ).” left out

[5] = 0.2% topical occluded, vs vehicle
[6] = 0.2% topical under Finn chamber, applied days 1 and 4, biopsy day 8, N=5 photoaged volunteers
[7] = topical occluded application, concentration not given
[8] = 0.2% topical under Finn chamber, applied days 1 and 4, biopsy day 8
[9] = 0.05% topical under Finn chamber, applied days 1 and 4, biopsy day 8
[10] = 0.025% (Retin-A cream), applied day 4, biopsy day 8

| Structure (SMILES) | Fibrillin-1 deposition proximal to the DEJ (in words) [1, 5] | Fibrillin expression proximal to the DEJ, Mean (degree of immunostaining) [1, 6] | Fibrillin-rich microfibrillar network proximal to the DEJ of photoaged skin (study summary, in words) [1, 7] | pCI content in the papillary dermis (in words) [2, 5] | Pro-collagen I expression in the papillary dermis, Mean (degree of immunostaining) [2, 8] | Effects on procollagen I in the papillary dermis (study summary, in words) [2, 7] | MMP-1 levels (in words) [3, 5] | MMP-1 expression, Mean (MMP-1 IHC) [3, 8] | Fibrillin expression proximal to the DEJ, Mean (degree of immunostaining) ([1]; 0.05% topical under Finn chamber, applied days 1 and 4, biopsy day 8, N=5) | Pro-collagen I expression in the papillary dermis, Mean (degree of immunostaining) [2, 9] | MMP-1 expression, Mean (MMP-1 IHC) [3, 9] | Clinical grading (cellulite) reduction in comparison with the vehicle treated thigh (cellulite (thigh)) | Subjective improvement increase in comparison with the vehicle treated thigh (cellulite (thigh)) | Thigh diameter reduction in comparison with the vehicle treated thigh (cellulite (thigh)) | Fibrillin expression proximal to the DEJ, Mean (degree of immunostaining) ([1]; 0.025% (Retin-A cream) under Finn chamber, applied day 4, biopsy day 8, N=5) | Pro-collagen I expression in the papillary dermis, Mean (degree of immunostaining) [2, 10] | MMP-1 expression, Mean (MMP-1 IHC) [3, 10] | Expression of MMP-1 (in words) ([3]; 0.025% all-trans RA, 4 day occluded application) | Erythema at the site of application [4] |
| --- | --- | --- | --- | --- | --- | --- | --- | --- | --- | --- | --- | --- | --- | --- | --- | --- | --- | --- | --- |
| CCCCCCCCCCCCCC[C@@H](O)[C@@H](O)[C@@H](N)CO [PS, phytosphingosine] | significant induction of fibrillin expression | 2.0000** | restores | significantly increased | 2.5556** | beneficial effects | no effect | 33.23 | – | – | – | – | – | – | – | – | – | – | – |
| CCCCCCCCCCCCCC[C@@H](O)[C@@H](O)[C@H](CO)NC(=O)c1ccccc1O [PS-SLC, salicyloyl-phytosphingosine] | – | 2.267* | – | – | 2.7790* | – | – | 22.72* | 1.7778** | 2.2472 | 18.40* | 27% | 34% | 4% | – | – | – | – | – |
| CC1=C(/C=C/C(C)=C/C=C/C(C)=C/C(=O)O)C(C)(C)CCC1 [RA, retinoic acid] | – | – | – | – | – | – | – | – | – | – | – | – | – | – | 2.8625** | 2.2667 | 36.82 | no effect | marked erythema |
